Experimental data reported in US9458153B2, “Dihydroquinolizinones for the treatment and prophylaxis of hepatitis B virus infection” (Hoffmann-La Roche Inc., priority 2014, dated 2016).

System: HBsAg
Assay: HBsAg assay (chemiluminescence immunoassay of secreted HBsAg in HepG2.2.15 culture supernatant)
Format: cell-based, HBV
Details: HBsAg secretion reduced by 50% vs no drug control; HepG2.2.15 cells; CLIA kit
Procedure: HepG2.2.15 cells (Acs et al. Proc Natl Acad Sci USA, 84, (1987), 4641-4), a constitutively HBV-expressing cell line were cultured in DMEM+Glutamax-I medium (Invitrogen, Carlsbad, Calif., USA), supplemented with 10% fetal bovine serum (Invitrogen) and G418 (Invitrogen) at a final concentration of 200 mg/L and maintained in 5% CO2 at 37° C.
HepG2.2.15 cells were seeded in duplicate into white, 96-well plates at 1.5×10^4 cells/well. The cells were treated with a three-fold serial dilution series of the compounds in DMSO. The final DMSO concentration in all wells was 1% and DMSO was used as no drug control.
The HBsAg chemiluminescence immunoassay (CLIA) kit (Autobio Diagnostics Co., Zhengzhou, China, Catalog number: CL0310-2) was used to measure the levels of secreted HBV antigens semi-quantitatively. For the detection 50 μL/well culture supernatant was used and HBsAg was quantified using HBsAg chemiluminescence immunoassay (CLIA) kit (Autobio Diagnostics Co., Zhengzhou, China, Catalog number: CL0310-2), 50 μL of the supernatant was transferred to the CLIA assay plate and 50 μL of enzyme conjugate reagent was added into each well. The plates were sealed and gently agitated for 1 hour at room temperature. The supernatant-enzyme-mixture was discarded and wells were washed 6 times with 300 μL of PBS. The residual liquid was removed by plating the CLIA plate right side down on absorbent tissue paper. 25 μL of substrates A and B were added to each well. Luminance was measured using a luminometer (Mithras LB 940 Multimode Microplate Reader) after 10 minutes incubation. Dose-response curves were generated and the IC50 value was extrapolated by using the E-WorkBook Suite (ID Business Solutions Ltd., Guildford, UK).
The compounds of the present invention were tested for their capacity to inhibit HBsAg as described herein.

Structure (SMILES)	IC50 [nM]
CCC1Cc2cc(OCc3ccccc3)c(OC)cc2-c2cc(=O)c(C(=O)O)cn21 (single isomer, unassigned; (+)) [Example 9, (+)-9-benzyloxy-6-ethyl-10-methoxy-2-oxo-6,7-dihydrobenzo[a]quinolizine-3-carboxylic acid]	15
CCC1Cc2cc(OCC(C)(C)CO)c(OC)cc2-c2cc(=O)c(C(=O)O)cn21 (single isomer, unassigned; (+)) [Example 23, (+)-6-ethyl-9-(3-hydroxy-2,2-dimethyl-propoxy)-10-methoxy-2-oxo-6,7-dihydrobenzo[a]quinolizine-3-carboxylic acid]	12
CCC1Cc2cc(OCCOC)c(OC)cc2-c2cc(=O)c(C(=O)O)cn21 (single isomer, unassigned; (+)) [Example 28, (+)-6-ethyl-10-methoxy-9-(2-methoxyethoxy)-2-oxo-6,7-dihydrobenzo[a]quinolizine-3-carboxylic acid]	29
CCC1Cc2cc(OCC3CC3)c(OC)cc2-c2cc(=O)c(C(=O)O)cn21 (single isomer, unassigned; (+)) [Example 31, (+)-9-(cyclopropylmethoxy)-6-ethyl-10-methoxy-2-oxo-6,7-dihydrobenzo[a]quinolizine-3-carboxylic acid]	9
CCC1Cc2cc(OCC(C)C)c(OC)cc2-c2cc(=O)c(C(=O)O)cn21 (single isomer, unassigned; (+)) [Example 34, (+)-6-ethyl-9-isobutoxy-10-methoxy-2-oxo-6,7-dihydrobenzo[a]quinolizine-3-carboxylic acid]	4
CCOc1cc2c(cc1OC)-c1cc(=O)c(C(=O)O)cn1C(CC)C2 (single isomer, unassigned; (+)) [Example 37, (+)-9-ethoxy-6-ethyl-10-methoxy-2-oxo-6,7-dihydrobenzo[a]quinolizine-3-carboxylic acid]	8
CCC1Cc2cc(OCCCOC)c(OC)cc2-c2cc(=O)c(C(=O)O)cn21 (single isomer, unassigned; (+)) [Example 40, (+)-6-ethyl-10-methoxy-9-(3-methoxypropoxy)-2-oxo-6,7-dihydrobenzo[a]quinolizine-3-carboxylic acid]	13
CCOCCOc1cc2c(cc1OC)-c1cc(=O)c(C(=O)O)cn1C(CC)C2 (single isomer, unassigned; (+)) [Example 43, (+)-9-(2-ethoxyethoxy)-6-ethyl-10-methoxy-2-oxo-6,7-dihydrobenzo[a]quinolizine-3-carboxylic acid]	46
CCC1Cc2cc(OCC(F)F)c(OC)cc2-c2cc(=O)c(C(=O)O)cn21 (single isomer, unassigned; (+)) [Example 46, (+)-9-(2,2-difluoroethoxy)-6-ethyl-10-methoxy-2-oxo-6,7-dihydrobenzo[a]quinolizine-3-carboxylic acid]	44
CCC1Cc2cc(OCC3CCOCC3)c(OC)cc2-c2cc(=O)c(C(=O)O)cn21 (single isomer, unassigned; (+)) [Example 49, (+)-6-ethyl-10-methoxy-2-oxo-9-(tetrahydropyran-4-ylmethoxy)-6,7-dihydrobenzo[a]quinolizine-3-carboxylic acid]	15
COc1cc2c(cc1OC)-c1cc(=O)c(C(=O)O)cn1C(C)C2 (single isomer, unassigned; (+)) [Example 67, (+)-9,10-dimethoxy-6-methyl-2-oxo-6,7-dihydrobenzo[a]quinolizine-3-carboxylic acid]	380
CCC1Cc2cc(OC)c(C3CC3)cc2-c2cc(=O)c(C(=O)O)cn21 (single isomer, unassigned; (+)) [Example 90, (+)-10-cyclopropyl-6-ethyl-9-methoxy-2-oxo-6,7-dihydrobenzo[a]quinolizine-3-carboxylic acid]	10
COc1cc2c(cc1OC)-c1cc(=O)c(C(=O)O)cn1C(CC(C)C)C2 (single isomer, unassigned; (+)) [Example 102, (+)-6-isobutyl-9,10-dimethoxy-2-oxo-6,7-dihydrobenzo[a]quinolizine-3-carboxylic acid]	42
COCCOc1cc2c(cc1Cl)-c1cc(=O)c(C(=O)O)cn1C(CC(C)C)C2 (single isomer, unassigned; (+)) [Example 105, (+)-10-chloro-6-isobutyl-9-(2-methoxyethoxy)-2-oxo-6,7-dihydrobenzo[a]quinolizine-3-carboxylic acid]	16
CCC1Cc2cc(OCc3ccccc3)c(C)cc2-c2cc(=O)c(C(=O)O)cn21 (single isomer, unassigned; (+)) [Example 116, (+)-9-benzyloxy-6-ethyl-10-methyl-2-oxo-6,7-dihydrobenzo[a]quinolizine-3-carboxylic acid]	33
CCOc1cc2c(cc1Cl)-c1cc(=O)c(C(=O)O)cn1C(CC)C2 (single isomer, unassigned; (+)) [Example 118, (+)-10-chloro-9-ethoxy-6-ethyl-2-oxo-6,7-dihydrobenzo[a]quinolizine-3-carboxylic acid]	4
COc1cc2c(cc1OCC(F)(F)F)CC(C(C)C)n1cc(C(=O)O)c(=O)cc1-2 (single isomer, unassigned; (+)) [Example 127, (+)-6-isopropyl-10-methoxy-2-oxo-9-(2,2,2-trifluoroethoxy)-6,7-dihydrobenzo[a]quinolizine-3-carboxylic acid]	8
COCCOc1cc2c(cc1OC)-c1cc(=O)c(C(=O)O)cn1C(C(C)C)C2 (single isomer, unassigned; (+)) [Example 129, (+)-6-isopropyl-10-methoxy-9-(2-methoxyethoxy)-2-oxo-6,7-dihydrobenzo[a]quinolizine-3-carboxylic acid]	12
COCCCOc1cc2c(cc1OC)-c1cc(=O)c(C(=O)O)cn1C(C(C)(C)C)C2 (single isomer, unassigned; (+)) [Example 132, (+)-6-tert-butyl-10-methoxy-9-(3-methoxypropoxy)-2-oxo-6,7-dihydrobenzo[a]quinolizine-3-carboxylic acid]	1
COCCOc1cc2c(cc1OC)-c1cc(=O)c(C(=O)O)cn1C(C1(C)CC1)C2 (single isomer, unassigned; (+)) [Example 135, (+)-10-methoxy-9-(2-methoxyethoxy)-6-(1-methylcyclopropyl)-2-oxo-6,7-dihydrobenzo[a]quinolizine-3-carboxylic acid]	4
COCCCOc1cc2c(c(Cl)c1F)-c1cc(=O)c(C(=O)O)cn1C(C(C)C)C2 (single isomer, unassigned; (+)) [Example 138, (+)-11-chloro-10-fluoro-6-isopropyl-9-(3-methoxypropoxy)-2-oxo-6,7-dihydrobenzo[a]quinolizine-3-carboxylic acid]	9

Same assay, conditions: Hepatitis B virus, HepG2.2.15, HBsAg secretion reduced by 50% vs no drug control; HepG2.2.15 cells; CLIA kit

Structure (SMILES)	IC50 [nM]
CC[C@@H]1[C@@H](C)c2cc(OCCOC)c(Cl)cc2-c2cc(=O)c(C(=O)O)cn21 (relative stereo) [Example 212A, (6R*, 7S*)-10-chloro-6-ethyl-9-(2-methoxyethoxy)-7-methyl-2-oxo-6,7-dihydrobenzo[a]quinolizine-3-carboxylic acid]	330
CC[C@@H]1[C@H](C)c2cc(OCCOC)c(Cl)cc2-c2cc(=O)c(C(=O)O)cn21 (relative stereo) [Example 212B, (6R*,7R*)-10-chloro-6-ethyl-9-(2-methoxyethoxy)-7-methyl-2-oxo-6,7-dihydrobenzo[a]quinolizine-3-carboxylic acid]	29
